Test results: US20050042213A1, “Methods and pharmaceutical compositions for modulating heparanase activation and uses thereof” (InSight Biopharmaceuticals Ltd., priority 2003, published 2005)
The star is where a group is joined. AMC = Cc1cc(=O)oc2cc(N*)ccc12; Cbz = O=C(OCc1ccccc1)*

Columns and labels:
[1] = test system: 293 cell extract; assay: Cleavage of Z-Pro-Lys-Lys-Glu-AMC (Peptide 1) by 293 cell extract and its inhibition by protease inhibitors; format: biochemical, human; design: % Inhibition: concentration or dose not given beside the values
Protocol: Following a 20 minutes incubation at 37° C., fluorescence released due to proteolytic activity was determined using a BMG POLARstar™ Galaxy fluorometer: excitation at 390 nm and emission at 460 nm.

[2] = test system: Cathepsin B; conditions: value reported in the literature (M. Murata et al., FEBS Lett., 280, 307, 1991); cited from earlier work
[3] = target: T1, pro-heparanase (H60) (Homo sapiens, UniProt Q9Y251, K307R); assay: Processing and activation of pro-heparanase in vitro with cathepsin B and D in the presence of heparin (Western blot, DMB assay); format: biochemical; conditions: cathepsin B and/or cathepsin D, heparin-sepharose
T1 sequence (Q9Y251 36-543 K307R): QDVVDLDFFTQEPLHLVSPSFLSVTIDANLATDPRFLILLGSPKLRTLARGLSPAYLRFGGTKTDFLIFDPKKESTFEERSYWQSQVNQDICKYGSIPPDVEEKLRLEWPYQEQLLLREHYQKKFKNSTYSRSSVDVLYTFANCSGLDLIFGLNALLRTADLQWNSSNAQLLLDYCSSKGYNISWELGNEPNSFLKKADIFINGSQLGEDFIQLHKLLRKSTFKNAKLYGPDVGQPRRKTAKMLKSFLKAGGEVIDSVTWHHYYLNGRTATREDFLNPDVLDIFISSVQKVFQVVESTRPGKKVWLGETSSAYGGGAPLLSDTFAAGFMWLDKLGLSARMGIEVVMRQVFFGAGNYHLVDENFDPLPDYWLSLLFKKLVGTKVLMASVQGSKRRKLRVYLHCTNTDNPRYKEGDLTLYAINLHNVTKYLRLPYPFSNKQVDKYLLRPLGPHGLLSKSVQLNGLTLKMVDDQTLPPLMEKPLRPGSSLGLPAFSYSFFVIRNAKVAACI
Protocol: (§1) Western blot analysis—Western blot analysis was performed using rabbit anti-heparanase polyclonal antibodies as described in U.S. Pat. Nos. 6,177,545; 6,531,129; and 6,562,950.
Following a 17 hours incubation at room temperature, reaction products were filtered to a new plate and quantified using di-methyl-methylene-blue, as described in U.S. Pat. No. 6,190,875.
Assay mixtures contained heparin (Sigma, H3393) or heparinomimetic molecules ethane-1,2-disulfonic acid (Sigma, E2269) and heparin disaccharide IVA (Sigma, H0895) for western blot analysis or heparin sepharose beads for activation assays, in 200 mM acetate buffer, pH 5.5, 4 mM EDTA and 8 mM DTT, with either Cathepsin B, Cathepsin D or both. Following a 17 hours of incubation at room temperature, reaction products were examined by western blot analysis or filtered to a new plate and quantified using di-methyl-methylene-blue, as described in U.S. Pat. No. 6,190,875 for activation assay.

[4] = target: T2, β-FGF (Homo sapiens, UniProt P09038); assay: Elisa assay for binding of β-FGF to heparin; conditions: inhibition of β-FGF binding to heparin
T2 construct: purchased Sigma F0291
Protocol: Elisa assay for determination of binding of β-FGF to heparin—96 well microplates were coated overnight with Heparin-albumin (Lizard) and blocked with 1% BSA in PBS with 0.05% Tween and 0.01% thimerosal for 2 hrs. β-FGF was added to the plates at a concentration of 0.8 ng/ml and incubated for 45 min at 23-25° C. The amount of β-FGF bound to heparin was detected using anti-FGF monoclonal antibody (Sigma Cat. # F6162) at a concentration of 2.5 ng/ml and secondary antibodies Sheep anti-mouse IgG linked to horseradish peroxidase (1:3000). TMB (Pierce Cat. #34021) was used as a substrate for peroxidase.
(§2) The plates were read at 450 nm with a reference wavelength of 630 nm using a VERSAmax plate reader. […] Percent inhibition was calculated as compared with the control reactions pre-incubated with 1% DMSO only.

[5] = target: T3, pro-heparanase transiently expressed in 293 cells (Homo sapiens, UniProt Q9Y251, K307R); assay: Pro-heparanase processing in transiently transfected 293 cells (Western blot); format: cell-based
T3 sequence (Q9Y251 36-543 K307R): T1 sequence (Q9Y251 36-543 K307R)
Protocol: as §1
Transient transfections—293 cells (200,000) were plated onto a 6 well tissue culture plate. 24 hrs later, the cells were transfected with 1 μg pSI (Promega) hpa plasmid (U.S. Pat. No. 6,475,763) in 3 μl Fugene reagent that was pre-incubated for 15 min in 100 μl medium without serum. Cells were treated with inhibitors 4 and 17 hrs following transfection.

[6] = Heparin binding of compounds (heparin sepharose CL-6B beads); conditions: compound at 5 uM
Protocol: Heparin binding—5 μM of the selected compound was prepared in a solution of PBS pH 7.2 with 0.05% Tween and 5% DMSO. […] Excess water was discarded by filtration using a Multiscreen vacuum manifold (Millipore, Cat No. MAVM 096 00). 200 μl of each compound tested was transferred to three wells of the filter plate—one empty well, one with sepharose CL-6B and one with heparin sepharose CL-6B. Plates were rotated for 2 hrs at 37° C. followed by filtration to a new 96 well clear plate, using a Multiscreen vacuum manifold. The absorbance spectrum of the filtrate in each well was determined using a VERSAmax plate reader (Molecular devices). Percent of heparin binding was calculated from the binding to heparin sepharose CL-6B as compared to the binding of the compound to the control sepharose CL-6B beads.

[7] = target: T4, heparanase (H53) (Homo sapiens, UniProt Q9Y251, K307R); assay: Heparanase activity inhibition (H53), DMB assay; format: biochemical; conditions: heparanase activity inhibition (H53); NI = no inhibition
T4 sequence (Q9Y251 158-543 K307R limits assumed): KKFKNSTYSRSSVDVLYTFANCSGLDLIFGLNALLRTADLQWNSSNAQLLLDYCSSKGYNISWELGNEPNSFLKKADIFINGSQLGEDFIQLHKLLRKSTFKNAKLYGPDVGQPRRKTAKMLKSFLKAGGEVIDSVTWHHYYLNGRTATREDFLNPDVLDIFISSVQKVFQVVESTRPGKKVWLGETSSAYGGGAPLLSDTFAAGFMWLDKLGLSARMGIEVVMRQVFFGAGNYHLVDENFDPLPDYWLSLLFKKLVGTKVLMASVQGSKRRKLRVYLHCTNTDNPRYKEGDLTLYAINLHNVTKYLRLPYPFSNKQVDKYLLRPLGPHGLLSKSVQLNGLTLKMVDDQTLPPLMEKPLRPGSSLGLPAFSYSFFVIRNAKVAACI
T4 sequence (Q9Y251 36-109 limits assumed): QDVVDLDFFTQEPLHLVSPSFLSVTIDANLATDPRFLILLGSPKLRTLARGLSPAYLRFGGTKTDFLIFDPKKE
Protocol: At the end of the incubation, the cells were lysed by three consecutive cycles of freezing and thawing in a −80° C. Freezer and a 37° C. shaker. Formation of active heparanase was detected by determination of heparanase activity in DMB assay as described in patent application U.S. Pat. No. 6,190,875B.

[8] = target: T1, pro-heparanase (H60); assay: Pro-heparanase activation in a cell-based assay (293 cells, DMB assay)
[9] = target: antithrombin (Homo sapiens, UniProt P01008); assay: Elisa assay for binding of antithrombin to heparin; conditions: inhibition of antithrombin binding to heparin; NI = no inhibition; read-out: IC50 ATIII
Protocol: Elisa assay for determination of binding of antithrombin to heparin—96 well microplates were coated overnight with Heparin-albumin (Lizard) and blocked with I % BSA in PBS with 0.05% Tween and 0.01% thimerosal for 2 hrs. […] was added to the plates at a concentration of 0.5 μg/ml and incubated overnight at 4° C. The amount of antithrombin bound to heparin was detected using an anti-antithrombin monoclonal antibody (Sigma Cat. # A5816) diluted to 1:200, and secondary antibodies (anti-mouse anti-Fc? conjugated to horseradish peroxidase, Jackson cat. # 115-035-008, 1:100). TMB (Pierce Cat. #34021) was used as a substrate for peroxidase.
The plates were read at 450 nm with a reference wavelength of 630 nm using a VERSAmax plate reader. […] Percent inhibition was calculated as compared to the control reactions pre-incubated with 1% DMSO only.

[10] = target: T5, VEGF (Homo sapiens, UniProt P15692); assay: Elisa assay for binding of VEGF to heparin; conditions: inhibition of VEGF binding to heparin
T5 sequence (P15692 27-191 isoform P15692-4): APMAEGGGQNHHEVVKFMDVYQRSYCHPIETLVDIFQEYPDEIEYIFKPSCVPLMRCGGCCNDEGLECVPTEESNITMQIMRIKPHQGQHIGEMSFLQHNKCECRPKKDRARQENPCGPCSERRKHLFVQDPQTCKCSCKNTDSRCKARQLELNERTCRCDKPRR
Protocol: Elisa assay for determination of binding of VEGF to heparin—96 well microplates were coated overnight with Heparin-albumin (Lizard) and blocked with 1% BSA in PBS with 0.05% Tween and 0.01% thimerosal for 2 hrs. VEGF was added to the plates at a concentration of 2 ng/ml and incubated for 45 min. at 23-25° C. The amount of VEGF bound to heparin was detected using anti-VEGF monoclonal antibody (Sigma Cat. # V4758) at a concentration of 0.26 μg/ml and secondary antibodies Sheep anti-mouse IgG linked to horseradish peroxidase (1:2000). TMB (Pierce Cat. #34021) was used as a substrate for peroxidase.
as §2

[11] = target: T6, Elastase, human neutrophil (Homo sapiens, UniProt P08246); assay: Determination of elastase activity; format: biochemical; conditions: Table 13
T6 construct: Elastase, human neutrophil (Calbiochem cat.# 324681); purchased Calbiochem 324681; host or cells: human neutrophils
T6 sequence (P08246 30-267): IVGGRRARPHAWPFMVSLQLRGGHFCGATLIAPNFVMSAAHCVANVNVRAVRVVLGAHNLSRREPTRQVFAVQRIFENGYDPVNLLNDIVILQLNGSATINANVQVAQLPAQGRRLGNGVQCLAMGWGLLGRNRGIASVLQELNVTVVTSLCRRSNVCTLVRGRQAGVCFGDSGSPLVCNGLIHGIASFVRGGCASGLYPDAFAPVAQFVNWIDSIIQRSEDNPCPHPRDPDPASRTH

[12] = target: T7, cathepsin G (Homo sapiens, UniProt P08311); assay: Cathepsin G activity inhibition; format: biochemical; conditions: data not shown
T7 sequence (P08311 21-244): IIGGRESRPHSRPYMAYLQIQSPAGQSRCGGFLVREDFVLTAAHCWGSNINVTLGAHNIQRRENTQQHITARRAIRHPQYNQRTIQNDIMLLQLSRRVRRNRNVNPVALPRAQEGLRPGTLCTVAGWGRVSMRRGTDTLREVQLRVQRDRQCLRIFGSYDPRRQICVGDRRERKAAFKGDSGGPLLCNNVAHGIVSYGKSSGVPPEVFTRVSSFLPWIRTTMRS

[13] = test system: pro-heparanase (H60); assay: Processing and activation of pro-heparanase in vitro with cathepsin G; format: biochemical, human; conditions: in the presence of heparin
Protocol: The assays were performed in assay mixtures containing heparin for western blot analysis or heparin sepharose beads for activation assays, in PBS, 365 mM NaCl, with 1 μ/ml cathepsin G (Sigma, C4428). Following a 17 hours incubation at room temperature, reaction products were examined in western blot analysis or filtered to a new plate and quantified using di-methyl-methylene-blue, as described in U.S. Pat. No. 6,190,875 for activation assay.

[14] = target: T8, Cathepsin L (Homo sapiens, UniProt P07711); assay: Proteolytic activity assay: cleavage of fluorogenic peptides by cathepsin L; format: biochemical; conditions: substrate cleaved by Cathepsin L
T8 construct: purchased Calbiochem
Protocol: (§3) Assay was done in a reaction mixture containing 200 mM acetate buffer, pH 5.5, 4 mM EDTA and 8 mM DTT. Following a 20 minutes incubation at 37° C., fluorescence released due to proteolytic activity was determined using a BMG POLARstar™ Galaxy fluorometer: excitation at 390 nm and emission at 460 nm.

[15] = target: Cathepsin B (Homo sapiens, UniProt P07858); assay: Proteolytic activity assay: cleavage of fluorogenic peptides by cathepsin B; format: biochemical; conditions: substrate cleaved by Cathepsin B
Protocol: as §3

T2 sequence (P09038 143-288): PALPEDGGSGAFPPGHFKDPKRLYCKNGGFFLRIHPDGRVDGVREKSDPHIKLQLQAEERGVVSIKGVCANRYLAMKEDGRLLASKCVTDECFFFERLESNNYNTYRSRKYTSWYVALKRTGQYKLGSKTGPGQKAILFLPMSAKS
T8 sequence (P07711 114-333, species assumed): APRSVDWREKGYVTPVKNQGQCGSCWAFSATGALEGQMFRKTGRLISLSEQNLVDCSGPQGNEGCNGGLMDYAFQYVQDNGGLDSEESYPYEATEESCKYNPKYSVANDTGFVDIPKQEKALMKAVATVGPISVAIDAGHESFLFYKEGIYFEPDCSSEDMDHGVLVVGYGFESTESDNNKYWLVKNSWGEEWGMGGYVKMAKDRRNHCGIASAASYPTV
Chain of antithrombin (P01008 33-464): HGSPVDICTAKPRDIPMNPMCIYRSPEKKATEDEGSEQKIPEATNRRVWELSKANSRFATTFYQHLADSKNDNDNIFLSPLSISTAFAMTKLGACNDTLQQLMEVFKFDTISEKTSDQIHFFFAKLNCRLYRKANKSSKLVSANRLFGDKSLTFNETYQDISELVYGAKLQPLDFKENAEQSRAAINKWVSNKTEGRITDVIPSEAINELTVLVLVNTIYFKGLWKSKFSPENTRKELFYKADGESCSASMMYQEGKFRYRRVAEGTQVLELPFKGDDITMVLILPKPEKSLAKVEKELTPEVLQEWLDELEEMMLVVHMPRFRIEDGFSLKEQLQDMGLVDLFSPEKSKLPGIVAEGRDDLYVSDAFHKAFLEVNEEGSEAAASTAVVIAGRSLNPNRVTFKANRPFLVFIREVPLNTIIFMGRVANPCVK

Compound: CCCNC(=O)[C@H]1O[C@@H]1C(=O)N[C@H](C(=O)N1CCC[C@H]1C(=O)O)[C@@H](C)CC [CA-074]
- % Inhibition ([1]; inhibition of Z-Pro-Lys-Lys-Glu-AMC cleavage by 293 cell extract): 96%
- activation of pro-heparanase in vitro (heparanase activity) [3]: inhibited this activation

Compound: Cc1cc(N(C)C)cc2[s+]c3cc(N(C)C)cc(C)c3nc12 [Compound 112]
- IC50 [4]: 1300 nM
- pro-heparanase expression [5]: did not affect pro-heparanase expression
- pro-heparanase processing [5]: completely inhibited pro-heparanase processing
- Binding to heparin (5 uM) [6]: 70%
- IC50 [7]: 20000 nM
- IC50 ([8]; inhibition of pro-heparanase activation, Table 11, heparin-binding compounds): 570 nM
- IC50 [9]: 18000 nM
- IC50 [10]: 2400 nM

Compound: O=C(Nc1ccc(Oc2cccc(Oc3ccc(NC(=O)c4ccncc4)cc3)c2)cc1)c1ccncc1 [Compound 128]
- IC50 [11]: 13000 nM
- IC50 ([8]; inhibition of pro-heparanase (H60) activation, Table 13 serine protease inhibitors): 500 nM
- inhibition of the activity of cathepsin G [12]: inhibit the activity of cathepsin G
- activation of pro-heparanase in vitro (heparanase activity) [3]: not by cathepsin B
- inhibition of pro-heparanase activation in-vitro by cathepsin G [13]: inhibit pro-heparanase activation in-vitro by cathepsin G

Compound: Z-Pro-Lys-Lys-Glu-AMC (Cbz-PKKE-{AMC}; SMILES Cc1cc(=O)oc2cc(NC(=O)[C@H](CCC(=O)O)NC(=O)[C@H](CCCCN)NC(=O)[C@H](CCCCN)NC(=O)[C@@H]3CCCN3C(=O)OCc3ccccc3)ccc12) [Peptide 1]
- Activity (δfluorescence) [14]: 0
- Activity (δfluorescence) [15]: 8926
- cleavage by 293 cell extract ([1]; different pHs, pH range 4.5-7.5): highest at pH 5.5-6.5
